This is an account of results in US20020086893A1, “Medicament” (SmithKline Beecham p.l.c., priority 1990, published 2002).

Molecules are shown by their SMILES. Structures can show the parent of a compound that is named as a salt.

In general, melting point refers to the temperature, or range, at which the solid turns liquid.

Take `CCCCc1nc2cc(Br)cc(C(=O)O)c2n1Cc1ccccc1Cl` [Example 4, 5-Bromo-2-n-butyl-1-(2-chlorophenyl)methyl-1H-benzimidazole-7-carboxylic Acid]: the melting point was 254 to 255 °C. `CCCCc1ncc(CC(Cc2ccccc2)C(=O)O)n1Cc1ccccc1Cl` (stereo not drawn) (as salt: hydrochloride) [Example 2, 3-[2-n-Butyl-1-{(2-chlorophenyl)methyl}-1H-imidazol-5-yl]-2-benzylpropanoic Acid] displayed a melting point of 118 to 120 °C. The result for `CCCSc1ncc(C[C@H](NC(=O)CCC)C(=O)O)n1Cc1ccccc1Cl` [Example 1, 3-[(2-Chlorophenyl)methyl]-2-propylthio-N-butyrylhistidine] reads 178 to 181 °C.
